In PubChem BioAssay AID2060483 (Molecular Pharmacology Branch, DTP, NCI, 2025):

Tested on: K24384-001-R-PDC complex spheroids, viability
Assay: Anticancer human tumor K24384-001-R-PDC patient-derived pancreatic adenocarcinoma cell line growth inhibition [GQUAD]
Conditions: for IC50: curve of first compound; for viability, T/C: stronger effect = lower value
Outline: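 Tumor cells were grown as complex spheroids with HUVEC endothelial cells and mesenchymal stem cells as stroma. G-quadruplex stabilizers were combined with targeted agents over half-log dilutions from near the clinical Cmax, or from 10 microM.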

[1] = second compound 0.0316 µM, first compound 0.0316 µM
[2] = second compound 0.0316 µM, first compound 0.1 µM
[3] = second compound 0.0316 µM, first compound 0.316 µM
[4] = second compound 0.0316 µM, first compound 1 µM
[5] = second compound 0.0316 µM, first compound 3.16 µM
[6] = second compound 0.0316 µM, first compound 10 µM
[7] = second compound 0.1 µM, first compound 0.0316 µM
[8] = second compound 0.1 µM, first compound 0.1 µM
[9] = second compound 0.1 µM, first compound 0.316 µM
[10] = second compound 0.1 µM, first compound 1 µM
[11] = second compound 0.1 µM, first compound 3.16 µM
[12] = second compound 0.1 µM, first compound 10 µM
[13] = second compound 0.316 µM, first compound 0.0316 µM
[14] = second compound 0.316 µM, first compound 0.1 µM
[15] = second compound 0.316 µM, first compound 0.316 µM
[16] = second compound 0.316 µM, first compound 1 µM
[17] = second compound 0.316 µM, first compound 3.16 µM
[18] = second compound 0.316 µM, first compound 10 µM
[19] = second compound 1 µM, first compound 0.0316 µM
[20] = second compound 1 µM, first compound 0.1 µM
[21] = second compound 1 µM, first compound 0.316 µM
[22] = second compound 1 µM, first compound 1 µM
[23] = second compound 1 µM, first compound 3.16 µM
[24] = second compound 1 µM, first compound 10 µM
[25] = second compound 3.16 µM, first compound 0.0316 µM
[26] = second compound 3.16 µM, first compound 0.1 µM
[27] = second compound 3.16 µM, first compound 0.316 µM
[28] = second compound 3.16 µM, first compound 1 µM
[29] = second compound 3.16 µM, first compound 3.16 µM
[30] = second compound 3.16 µM, first compound 10 µM
[31] = second compound 10 µM, first compound 0.0316 µM
[32] = second compound 10 µM, first compound 0.1 µM
[33] = second compound 10 µM, first compound 0.316 µM
[34] = second compound 10 µM, first compound 1 µM
[35] = second compound 10 µM, first compound 3.16 µM
[36] = second compound 10 µM, first compound 10 µM
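Further: spheroids exposed to compounds for seven days.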

SMILES: C=CCn1c(=O)c2cnc(Nc3ccc(N4CCN(C)CC4)cc3)nc2n1-c1cccc(C(C)(C)O)n1 + Cc1cnc(CNC(=O)c2c(=O)c3ccc(N4CCCN(C)CC4)nc3n3c2sc2ccccc23)cn1
- IC50 (second compound 0.0316 µM): 487 nM
- IC50 (second compound 0.1 µM): 350 nM
- IC50 (second compound 0.316 µM): < 31.6 nM
- IC50 (second compound 1 µM): < 31.6 nM
- IC50 (second compound 3.16 µM): < 31.6 nM
- IC50 (second compound 10 µM): < 31.6 nM
- viability, T/C [1]: 63.6%
- viability, T/C [2]: 76.6%
- viability, T/C [3]: 68.1%
- viability, T/C [4]: 18.3%
- viability, T/C [5]: 17.8%
- viability, T/C [6]: 23.2%
- viability, T/C [7]: 53.3%
- viability, T/C [8]: 65.2%
- viability, T/C [9]: 51.4%
- viability, T/C [10]: 27.1%
- viability, T/C [11]: 19.8%
- viability, T/C [12]: 18.1%
- viability, T/C [13]: 45.5%
- viability, T/C [14]: 50.1%
- viability, T/C [15]: 37.1%
- viability, T/C [16]: 26.7%
- viability, T/C [17]: 22.6%
- viability, T/C [18]: 17.5%
- viability, T/C [19]: 30.5%
- viability, T/C [20]: 49.7%
- viability, T/C [21]: 34.9%
- viability, T/C [22]: 36.9%
- viability, T/C [23]: 27.1%
- viability, T/C [24]: 22.9%
- viability, T/C [25]: 36.4%
- viability, T/C [26]: 39.7%
- viability, T/C [27]: 28.1%
- viability, T/C [28]: 31.8%
- viability, T/C [29]: 26%
- viability, T/C [30]: 15.8%
- viability, T/C [31]: 10%
- viability, T/C [32]: 10.6%
- viability, T/C [33]: 18%
- viability, T/C [34]: 6.25%
- viability, T/C [35]: 0.39%
- viability, T/C [36]: 0.2%

SMILES: CC(C)(O)C1CCC(Nc2ccc3ncc(-c4cccc(C(F)(F)F)c4)n3n2)CC1 (stereo not given) + Cc1cnc(CNC(=O)c2c(=O)c3ccc(N4CCCN(C)CC4)nc3n3c2sc2ccccc23)cn1
- IC50 (second compound 0.0316 µM): 1720 nM
- IC50 (second compound 0.1 µM): 1680 nM
- IC50 (second compound 0.316 µM): 31.6 nM
- IC50 (second compound 1 µM): < 31.6 nM
- IC50 (second compound 3.16 µM): < 31.6 nM
- IC50 (second compound 10 µM): < 31.6 nM
- viability, T/C [1]: 89%
- viability, T/C [2]: 85.6%
- viability, T/C [3]: 90.3%
- viability, T/C [4]: 69.2%
- viability, T/C [5]: 26.6%
- viability, T/C [6]: 30.2%
- viability, T/C [7]: 55.6%
- viability, T/C [8]: 75.8%
- viability, T/C [9]: 72.7%
- viability, T/C [10]: 76.4%
- viability, T/C [11]: 22.4%
- viability, T/C [12]: 28.3%
- viability, T/C [13]: 42.4%
- viability, T/C [14]: 49.8%
- viability, T/C [15]: 46%
- viability, T/C [16]: 60.9%
- viability, T/C [17]: 28.8%
- viability, T/C [18]: 28.1%
- viability, T/C [19]: 37.1%
- viability, T/C [20]: 53%
- viability, T/C [21]: 36.4%
- viability, T/C [22]: 42.4%
- viability, T/C [23]: 22.3%
- viability, T/C [24]: 15.1%
- viability, T/C [25]: 30.4%
- viability, T/C [26]: 40.3%
- viability, T/C [27]: 36.9%
- viability, T/C [28]: 37.7%
- viability, T/C [29]: 0.14%
- viability, T/C [30]: 0.16%
- viability, T/C [31]: 12.8%
- viability, T/C [32]: 12.9%
- viability, T/C [33]: 5.01%
- viability, T/C [34]: 0.25%
- viability, T/C [35]: 0.24%
- viability, T/C [36]: 0.23%

SMILES: CCCS(=O)(=O)Nc1ccc(F)c(C(=O)c2c[nH]c3ncc(-c4ccc(Cl)cc4)cc23)c1F + Cc1cnc(CNC(=O)c2c(=O)c3ccc(N4CCCN(C)CC4)nc3n3c2sc2ccccc23)cn1
- IC50 (second compound 0.0316 µM): 8050 nM
- IC50 (second compound 0.1 µM): 6380 nM
- IC50 (second compound 0.316 µM): > 10000 nM
- IC50 (second compound 1 µM): < 31.6 nM
- IC50 (second compound 3.16 µM): < 31.6 nM
- IC50 (second compound 10 µM): < 31.6 nM
- viability, T/C [1]: 78%
- viability, T/C [2]: 84.4%
- viability, T/C [3]: 113%
- viability, T/C [4]: 93.8%
- viability, T/C [5]: 105%
- viability, T/C [6]: 39.5%
- viability, T/C [7]: 50.8%
- viability, T/C [8]: 84.2%
- viability, T/C [9]: 63.4%
- viability, T/C [10]: 90.9%
- viability, T/C [11]: 90.6%
- viability, T/C [12]: 33.5%
- viability, T/C [13]: 48.5%
- viability, T/C [14]: 56.8%
- viability, T/C [15]: 62%
- viability, T/C [16]: 64.8%
- viability, T/C [17]: 65.9%
- viability, T/C [18]: 31.1%
- viability, T/C [19]: 37.2%
- viability, T/C [20]: 36%
- viability, T/C [21]: 33.6%
- viability, T/C [22]: 48.3%
- viability, T/C [23]: 60.2%
- viability, T/C [24]: 29%
- viability, T/C [25]: 39.4%
- viability, T/C [26]: 35.2%
- viability, T/C [27]: 37.1%
- viability, T/C [28]: 34.6%
- viability, T/C [29]: 39.5%
- viability, T/C [30]: 16.2%
- viability, T/C [31]: 0.22%
- viability, T/C [32]: 0.41%
- viability, T/C [33]: 0.78%
- viability, T/C [34]: 0.33%
- viability, T/C [35]: 0.23%
- viability, T/C [36]: 0.18%

SMILES: COc1ncnc(C2CC2)c1-c1ncc2cnn(Cc3ccc(-c4nc(C(F)(F)F)cn4C(C)C)cc3)c2n1 + Cc1cnc(CNC(=O)c2c(=O)c3ccc(N4CCCN(C)CC4)nc3n3c2sc2ccccc23)cn1
- IC50 (second compound 0.0316 µM): > 10000 nM
- IC50 (second compound 0.1 µM): > 10000 nM
- IC50 (second compound 0.316 µM): < 31.6 nM
- IC50 (second compound 1 µM): < 31.6 nM
- IC50 (second compound 3.16 µM): < 31.6 nM
- IC50 (second compound 10 µM): < 31.6 nM
- viability, T/C [1]: 85.9%
- viability, T/C [2]: 90.3%
- viability, T/C [3]: 78%
- viability, T/C [4]: 84.6%
- viability, T/C [5]: 69.1%
- viability, T/C [6]: 94.5%
- viability, T/C [7]: 46.1%
- viability, T/C [8]: 71%
- viability, T/C [9]: 71.6%
- viability, T/C [10]: 52.2%
- viability, T/C [11]: 57.4%
- viability, T/C [12]: 79.5%
- viability, T/C [13]: 44.5%
- viability, T/C [14]: 43.5%
- viability, T/C [15]: 43.3%
- viability, T/C [16]: 43.2%
- viability, T/C [17]: 65.1%
- viability, T/C [18]: 46.4%
- viability, T/C [19]: 43.6%
- viability, T/C [20]: 46.7%
- viability, T/C [21]: 41%
- viability, T/C [22]: 44.7%
- viability, T/C [23]: 42.9%
- viability, T/C [24]: 36.1%
- viability, T/C [25]: 31.5%
- viability, T/C [26]: 34%
- viability, T/C [27]: 33%
- viability, T/C [28]: 42.1%
- viability, T/C [29]: 39.1%
- viability, T/C [30]: 29%
- viability, T/C [31]: 24%
- viability, T/C [32]: 13.7%
- viability, T/C [33]: 23.1%
- viability, T/C [34]: 20.8%
- viability, T/C [35]: 17.1%
- viability, T/C [36]: 0.33%

SMILES: O=C(NO)c1cnc(N2CCN(S(=O)(=O)c3ccc4ccccc4c3)CC2)nc1 + Cc1cnc(CNC(=O)c2c(=O)c3ccc(N4CCCN(C)CC4)nc3n3c2sc2ccccc23)cn1
- IC50 (second compound 0.0316 µM): 477 nM
- IC50 (second compound 0.1 µM): 325 nM
- IC50 (second compound 0.316 µM): 151 nM
- IC50 (second compound 1 µM): < 31.6 nM
- IC50 (second compound 3.16 µM): < 31.6 nM
- IC50 (second compound 10 µM): < 31.6 nM
- viability, T/C [1]: 86.3%
- viability, T/C [2]: 78%
- viability, T/C [3]: 77.2%
- viability, T/C [4]: 0.9%
- viability, T/C [5]: 0.08%
- viability, T/C [6]: 0.11%
- viability, T/C [7]: 65.2%
- viability, T/C [8]: 78.7%
- viability, T/C [9]: 51.2%
- viability, T/C [10]: 1.11%
- viability, T/C [11]: 0.09%
- viability, T/C [12]: 0.11%
- viability, T/C [13]: 42.7%
- viability, T/C [14]: 73%
- viability, T/C [15]: 35.8%
- viability, T/C [16]: 0.16%
- viability, T/C [17]: 0.07%
- viability, T/C [18]: 0.09%
- viability, T/C [19]: 38.9%
- viability, T/C [20]: 43.9%
- viability, T/C [21]: 31.3%
- viability, T/C [22]: 0.12%
- viability, T/C [23]: 0.07%
- viability, T/C [24]: 0.11%
- viability, T/C [25]: 33.3%
- viability, T/C [26]: 34.1%
- viability, T/C [27]: 16.3%
- viability, T/C [28]: 0.12%
- viability, T/C [29]: 0.1%
- viability, T/C [30]: 0.14%
- viability, T/C [31]: 0.16%
- viability, T/C [32]: 0.23%
- viability, T/C [33]: 0.19%
- viability, T/C [34]: 0.16%
- viability, T/C [35]: 0.17%
- viability, T/C [36]: 0.16%
